Non-standard residues stand in square brackets, D forms with d. Residues, ends and D or L forms follow the SMILES beside them. *: point of attachment. Propanoyl(3-(3-pyridyl)) = O=C(CCc1cccnc1)*; Arg(Me) = CNC(=N)NCCC[C@H](N)C(=O)O; d4Pal = N[C@H](Cc1ccncc1)C(=O)O; azaGly = NNC(=O)O
Tests used:
[1] = test system: human colonic carcinoma-derived cell line SW620; experiment: Tumor growth inhibition activity in tumor-bearing mice; format: in vivo, mouse; conditions: for tumor growth inhibition (tumor size) compared to the vehicle group: s.c. osmotic pump; for effect of tumor growth inhibition relative to Metastin: in vivo
Method: The abscissa denotes the number of days after injection. The bar on the abscissa designates a dosing period. The ordinate denotes a tumor size (mm^3).
On the following day, human colonic carcinoma-derived cell line SW620 (ATCC) was dissolved in 20 mM phosphate buffered saline (pH 7.2)(PBS) containing 200 μL of 0.15M NaCl at a density of 2×10^6 cells. The resulting solution was subcutaneously injected into the left flank of the mice above. The day when the cells were injected was made Day 0. Tumor was measured with an electronic caliper every other or 2 other days during Days 4 to 13 from the cell administration, and tumor size was calculated by the equation: (shorter diameter)^2×longer diameter/2.

[2] = Effect of elevating sugar level by metastin derivatives (blood glucose and glucagon); format: in vivo, rat; conditions: Wistar male rats; for blood glucose level: i.v. 80 nmol/kg (FIG. 10); for blood glucagon level: i.v. 80 nmol/kg (FIG. 11)
From the text: The value indicates (mean±SE) (n=5). Symbol * designates that the P-value is 0.05 or less, when compared to the saline group and symbol ** designates that the P-value is 0.01 or less, when compared to the saline group.
In the figure, symbols open circle, closed circle and closed triangle designate blood glucagon level in the saline group and the 80 nmol/kg KiSS1-305 (Compound No. 305) group, the 80 nmol/kg KiSS1-322 (Compound No. 322) group, respectively. The value indicates (mean±SE) (n=5). Symbol * designates that the P-value is 0.05 or less, when compared to the saline group.
An operation was performed in free moving mature Wistar male rats (weighing […] at the time of operation) in a manner similar to TEST EXAMPLE 1 to collect blood. After the operation, the animal was maintained overnight. […] To prevent blood clotting, 3 μl of 300 KIU/ml aprotinin solution containing 3 mg/ml EDTA had previously been filled in the syringe. […] Blood was collected from the jugular vein by 300 μl each 2, 5, 15, 30, 45 and 60 minutes starting from the intravenous injection. The collected blood was centrifuged (13,000 rpm, 5 minutes) with a high speed refrigerated centrifuge (MR-150, Tomy Seiko Co, Ltd.) to recover the supernatant (plasma). Glucose level in blood was measured using Fuji Drychem 3500 (FUJI FILM) and glucagon level in blood was measured using a glucagon kit “Daiichi” (Daiichi Radioisotope Laboratories Ltd.), as in TEST EXAMPLE 1 or 2.

[3] = target: T1, hOT7T175 (Homo sapiens, UniProt Q969F8); experiment: Intracellular Ca ion level-increasing activity using FLIPR (180 seconds; specific activity to Metastin (1-54)); format: cell-based; conditions: hOT7T175/CHO, change in intracellular calcium ion level for 180 seconds, Tables 21-23
T1 construct: expressed in transfected cells

[4] = SW620 tumor-bearing BALB/cAnN-nu mice, 1 mM, 24 mol/day/mouse×14 days (24 nmol for Compound No. 305)
[5] = SW620 tumor-bearing mice, 0.1 mM, 1/10 dose of Metastin, 2.4 mol (nmol)/day/mouse×14 days

T1 sequence (Q969F8 whole entry L364H): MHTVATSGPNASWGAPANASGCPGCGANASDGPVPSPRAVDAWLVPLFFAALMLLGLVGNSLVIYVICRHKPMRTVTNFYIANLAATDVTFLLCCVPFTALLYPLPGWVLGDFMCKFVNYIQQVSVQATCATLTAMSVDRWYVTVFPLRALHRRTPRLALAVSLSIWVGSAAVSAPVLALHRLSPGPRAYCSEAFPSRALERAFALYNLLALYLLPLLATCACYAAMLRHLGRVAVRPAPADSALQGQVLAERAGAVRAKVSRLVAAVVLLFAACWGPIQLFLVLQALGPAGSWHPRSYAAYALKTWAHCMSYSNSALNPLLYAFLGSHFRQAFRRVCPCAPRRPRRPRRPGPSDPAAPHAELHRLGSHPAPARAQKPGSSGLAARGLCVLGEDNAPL

Compound	tumor growth inhibition (tumor size) compared to the vehicle group [1, 4]	effect of tumor growth inhibition relative to Metastin ([1]; SW620 tumor-bearing mice)	tumor growth inhibition (tumor size) compared to the vehicle group [1, 5]	blood glucose level [2]	blood glucagon level [2]	intracellular Ca ion level-increasing activity [specific activity to Metastin (1-54)] [3]	tumor growth inhibition (tumor size) compared with the Metastin group ([1]; SW620 tumor-bearing mice, same dose as Metastin, 24 mol/day/mouse×14 days)
CNC(=N)NCCC[C@H](NC(=O)[C@H](CC(C)C)NC(=O)NNC(=O)[C@H](Cc1ccccc1)NC(=O)[C@H](CO)NC(=O)[C@H](CC(N)=O)NC(=O)[C@@H](Cc1ccncc1)NC(=O)[C@H](N)Cc1ccc(O)cc1)C(=O)N[C@@H](Cc1ccccc1)C(N)=O [Compound No. 305, D-Tyr-D-Pya(4)-Asn-Ser-Phe-AzaGly-Leu-Arg(Me)-Phe-NH2] (H-[dY][d4Pal]NSF[azaGly]L[Arg(Me)]F-NH2)	significant effect of tumor growth inhibition from Days 5 to 9 and on Day 11	10 times	significant tumor growth inhibition activity from Days 5 to 11	increase in the blood glucose level	increase in the blood glucagon level	5	–
CNC(=N)NCCC[C@H](NC(=O)[C@H](CC(C)C)NC(=O)NNC(=O)[C@H](Cc1ccccc1)NC(=O)[C@H](CO)NC(=O)[C@H](CC(N)=O)NC(=O)CCc1cccnc1)C(=O)N[C@@H](Cc1ccccc1)C(N)=O [Compound No. 322, 3-(3-Pyridyl)propionyl-Asn-Ser-Phe-AzaGly-Leu-Arg(Me)-Phe-NH2] ({Propanoyl(3-(3-pyridyl))}-NSF[azaGly]L[Arg(Me)]F-NH2)	significant tumor growth inhibition activity from Days 6 to 11	10 times	significant tumor growth inhibition activity in a 1/10 dose (2.4 mol/day/mouse×14 days) of Metastin from Days 6 to 8	increase in the blood glucose level	increase in the blood glucagon level	1	on Day 11, showed a significant tumor growth inhibition activity even when compared with the Metastin group

— patent publication US8778871B2 (Takeda Pharmaceutical Company Limited, priority 2004, dated 2014)
